Measured values published in publication PMC5078989, “Targeted inhibition of the COP9 signalosome for treatment of cancer” (Nature Communications, 2016).

Key:
Format in all cases: biochemical
[1] = molecular target: T1, CSN5 (Homo sapiens, UniProt Q92905); test: CSN5 activity assay (CSN deneddylation, fluorescence polarization); details: JAMM domain protease; means±s.d.
T1 construct: made in house; host or cells: Sf21 insect cells, co-infection of separate baculoviruses
Procedure: Unlike the majority of proteases, it is not active as an individual subunit or as an isolated catalytic domain. […] For the identification of CSN inhibitors, we therefore conducted a high-throughput screening campaign using a biochemical assay with recombinant CSN and a fluorescence-labelled and NEDD8-modified CRL substrate[30][40] (PT22-NEDD8-SCF^Skp2; Supplementary Table 1).
The potency of CSN5 inhibitors was determined in a CSN activity assay using changes in fluorescence polarization as the readout. Reactions were carried out at room temperature in 384-well plates. […] The effect of compound on enzymatic activity was determined from the linear part of the progression curves by an end-point measurement of the fluorescence polarization at 590 nm after excitation at 540 nm using a PHERAstar plate reader (BMG LABTECH GmbH). IC50 values were calculated from the plot of percentage of inhibition versus inhibitor concentration using the non-linear regression analysis software Origin 7.5SR6 (OriginLab Corp.).

[2] = molecular target: T2, Human AMSHLP (Homo sapiens, UniProt Q96FJ0); test: Selectivity assay AMSHLP (ubiquitin-rhodamine110-glycine substrate); details: JAMM domain protease
T2 construct: made in house; host or cells: E. coli
T2 sequence (Q96FJ0 1-436): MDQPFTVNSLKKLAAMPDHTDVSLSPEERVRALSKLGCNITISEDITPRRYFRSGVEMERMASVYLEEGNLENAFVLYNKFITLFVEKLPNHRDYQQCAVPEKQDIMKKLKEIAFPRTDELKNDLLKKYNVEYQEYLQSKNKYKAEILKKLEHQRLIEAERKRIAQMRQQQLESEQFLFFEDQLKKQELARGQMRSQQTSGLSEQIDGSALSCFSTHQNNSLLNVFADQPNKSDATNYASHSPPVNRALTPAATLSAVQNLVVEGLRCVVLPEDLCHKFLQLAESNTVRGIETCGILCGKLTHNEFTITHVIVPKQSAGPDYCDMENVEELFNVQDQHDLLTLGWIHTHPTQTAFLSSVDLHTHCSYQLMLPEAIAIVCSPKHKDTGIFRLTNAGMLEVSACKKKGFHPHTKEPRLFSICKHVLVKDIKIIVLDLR
Procedure: (§1) All biochemical assays were performed at room temperature in 384-well plates in a total volume of 25.25 μl per well. Test compounds were dissolved in 90% (v/v) DMSO/water. For the assays, 250 nl of compound solution was added per well, followed by addition of 12.5 μl protease solution. After 70 min of pre-incubation at room temperature, the reactions were started by addition of 12.5 μl substrate solution and followed either by measuring fluorescence intensity (rhodamine 110-based substrates) or by fluorescence lifetime (PT14-based substrates). The effect of compound on enzymatic activity was obtained from the linear part of the progress curves and determined after 1 h (t=60 min). The final compound concentrations ranged from 100 μM to 1 nM.
Human AMSHLP. Enzyme was expressed in and purified from E. coli; substrate: ubiquitin-rhodamine110-glycine was purchased from emp Biotech GmbH (Berlin, Germany; product number AS 09/12-A4); enzyme concentration: 4 nM; substrate concentration: 200 nM; assay buffer: 100 mM Tris/HCl at pH 7.5, 10 mM CaCl2, 100 mM NaCl, 10 μM ZnCl2, 0.005% (v/v) BRIJ 35 and 5 mM dithioerythritol (DTE).

[3] = molecular target: T3, human MMP2 (Homo sapiens, UniProt P08253); test: Selectivity assay MMP2
T3 construct: human MMP2 (Uniprot P08253), amino acids 1–660; made in house; host or cells: insect cells (baculovirus)
T3 sequence (P08253 30-660): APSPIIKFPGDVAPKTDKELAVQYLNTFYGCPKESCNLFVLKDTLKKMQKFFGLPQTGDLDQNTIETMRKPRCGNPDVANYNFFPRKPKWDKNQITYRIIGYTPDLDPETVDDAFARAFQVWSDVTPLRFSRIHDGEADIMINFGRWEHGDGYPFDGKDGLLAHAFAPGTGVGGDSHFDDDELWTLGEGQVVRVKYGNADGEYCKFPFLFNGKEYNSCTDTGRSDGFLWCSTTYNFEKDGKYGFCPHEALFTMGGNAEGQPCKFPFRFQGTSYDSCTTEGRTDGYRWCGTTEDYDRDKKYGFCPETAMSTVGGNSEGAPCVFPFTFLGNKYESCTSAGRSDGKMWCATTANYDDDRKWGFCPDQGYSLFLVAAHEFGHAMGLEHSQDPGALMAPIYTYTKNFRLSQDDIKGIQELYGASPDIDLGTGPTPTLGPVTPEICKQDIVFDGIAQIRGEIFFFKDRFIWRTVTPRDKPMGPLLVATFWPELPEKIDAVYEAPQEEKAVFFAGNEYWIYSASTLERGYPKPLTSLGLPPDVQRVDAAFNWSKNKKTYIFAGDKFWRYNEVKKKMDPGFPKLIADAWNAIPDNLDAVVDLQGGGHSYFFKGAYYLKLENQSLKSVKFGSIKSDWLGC
Procedure: as §1
(§2) Matrix metalloproteinases. Human MMP1 (Uniprot P03956), amino acids 1–469, expressed in and purified from stable transfected C127 cells; human MMP2 (Uniprot P08253), amino acids 1–660, expressed in and purified from insect cells (baculovirus expression system); human MMP8 (Uniprot P22894), amino acids 100–262, expressed in and purified from E. coli; human MMP9 (Uniprot P14780), amino acids 1–707, expressed in and purified from stable transfected 293 cells; human MMP12 (Uniprot P39900), amino acids 101–268, expressed in and purified from E. coli; human MMP13 (Uniprot P45452), amino acids 103–274, expressed in and purified from E. coli; human MMP14 (Uniprot P50281), amino acids 112–284, expressed in and purified from E. coli; human ADAM17 (Uniprot P78536), amino acids 1–670, expressed in and purified from insect cells (baculovirus expression system); substrate: Ac-C(PT14)-[…]-NH2 purchased from Biosyntan (product number 8069); enzyme concentrations: 3 nM (MMP1), 1 nM (MMP2), 3 nM (MMP8), 0.1 nM (MMP9), 0.5 nM (MMP12), 0.13 nM (MMP13), 0.005 nM (MMP14), 30 nM (ADAM17); substrate concentration: 0.8 μM; assay buffer: 100 mM Tris, pH 7.4, 100 mM NaCl, 10 mM CaCl2, 10 μM ZnCl2, 0.075% (v/v) Brij35.

[4] = molecular target: T4, human MMP8 (Homo sapiens, UniProt P22894); test: Selectivity assay MMP8
T4 construct: human MMP8 (Uniprot P22894), amino acids 100–262; made in house; host or cells: E. coli
Procedure: as §1, §2

[5] = molecular target: T5, human MMP9 (Homo sapiens, UniProt P14780); test: Selectivity assay MMP9
T5 construct: human MMP9 (Uniprot P14780), amino acids 1–707; made in house; host or cells: stably transfected 293 cells
Procedure: as §1, §2

[6] = molecular target: T6, human MMP12 (Homo sapiens, UniProt P39900); test: Selectivity assay MMP12
T6 construct: human MMP12 (Uniprot P39900), amino acids 101–268; made in house; host or cells: E. coli
Procedure: as §1, §2

[7] = molecular target: T7, human MMP13 (Homo sapiens, UniProt P45452); test: Selectivity assay MMP13
T7 construct: human MMP13 (Uniprot P45452), amino acids 103–274; made in house; host or cells: E. coli
Procedure: as §1, §2

[8] = molecular target: T8, human MMP14 (Homo sapiens, UniProt P50281); test: Selectivity assay MMP14
T8 construct: human MMP14 (Uniprot P50281), amino acids 112–284; made in house; host or cells: E. coli
Procedure: as §1, §2

[9] = molecular target: T9, human ADAM17 (Homo sapiens, UniProt P78536); test: Selectivity assay ADAM17
T9 construct: human ADAM17 (Uniprot P78536), amino acids 1–670; made in house; host or cells: insect cells (baculovirus)
Procedure: as §1, §2

Measured: IC50

T4 sequence (P22894 100-262): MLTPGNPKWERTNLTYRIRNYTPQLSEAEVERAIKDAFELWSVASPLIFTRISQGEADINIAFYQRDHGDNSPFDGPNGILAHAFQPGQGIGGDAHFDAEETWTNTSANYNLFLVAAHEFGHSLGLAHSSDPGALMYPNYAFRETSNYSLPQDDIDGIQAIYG
T9 sequence (P78536 18-670): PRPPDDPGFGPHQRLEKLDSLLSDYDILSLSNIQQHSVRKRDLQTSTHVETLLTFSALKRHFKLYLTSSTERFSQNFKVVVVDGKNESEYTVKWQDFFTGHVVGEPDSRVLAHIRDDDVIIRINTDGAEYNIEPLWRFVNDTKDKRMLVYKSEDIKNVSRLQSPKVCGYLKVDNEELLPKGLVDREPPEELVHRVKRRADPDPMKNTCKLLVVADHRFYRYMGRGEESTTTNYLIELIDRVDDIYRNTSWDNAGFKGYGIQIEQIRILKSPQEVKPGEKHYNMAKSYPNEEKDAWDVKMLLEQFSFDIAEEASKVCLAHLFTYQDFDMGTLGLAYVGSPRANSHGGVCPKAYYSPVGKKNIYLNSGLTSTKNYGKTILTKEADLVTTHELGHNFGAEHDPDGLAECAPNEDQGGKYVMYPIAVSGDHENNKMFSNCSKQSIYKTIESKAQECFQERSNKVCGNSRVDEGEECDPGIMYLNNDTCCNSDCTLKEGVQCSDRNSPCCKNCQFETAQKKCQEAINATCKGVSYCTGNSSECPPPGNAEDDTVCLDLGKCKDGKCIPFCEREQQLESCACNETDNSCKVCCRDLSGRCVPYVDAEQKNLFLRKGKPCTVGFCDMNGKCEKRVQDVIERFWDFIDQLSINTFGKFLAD
T5 sequence (P14780 20-707): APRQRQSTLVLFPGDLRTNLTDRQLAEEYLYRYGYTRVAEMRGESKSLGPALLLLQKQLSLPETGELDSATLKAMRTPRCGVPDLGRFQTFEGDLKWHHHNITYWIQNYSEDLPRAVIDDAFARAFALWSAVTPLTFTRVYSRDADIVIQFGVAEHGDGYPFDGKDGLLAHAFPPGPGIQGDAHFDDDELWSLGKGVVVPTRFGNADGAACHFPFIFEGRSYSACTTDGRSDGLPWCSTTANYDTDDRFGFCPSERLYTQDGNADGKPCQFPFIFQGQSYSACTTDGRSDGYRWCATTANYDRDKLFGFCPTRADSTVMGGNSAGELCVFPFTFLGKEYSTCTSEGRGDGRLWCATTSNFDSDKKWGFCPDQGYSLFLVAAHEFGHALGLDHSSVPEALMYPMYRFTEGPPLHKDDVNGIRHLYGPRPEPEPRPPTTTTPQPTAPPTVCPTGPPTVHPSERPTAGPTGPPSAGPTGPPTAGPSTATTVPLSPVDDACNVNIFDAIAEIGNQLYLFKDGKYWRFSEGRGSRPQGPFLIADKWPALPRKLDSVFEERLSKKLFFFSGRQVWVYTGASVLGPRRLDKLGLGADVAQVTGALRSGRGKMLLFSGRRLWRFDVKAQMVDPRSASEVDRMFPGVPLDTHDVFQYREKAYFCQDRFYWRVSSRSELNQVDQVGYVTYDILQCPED
T6 sequence (P39900 101-268): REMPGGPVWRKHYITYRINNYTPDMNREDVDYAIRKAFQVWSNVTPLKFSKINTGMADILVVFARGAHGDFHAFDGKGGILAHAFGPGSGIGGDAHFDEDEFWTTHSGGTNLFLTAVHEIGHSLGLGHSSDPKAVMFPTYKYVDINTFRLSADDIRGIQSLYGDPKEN

N#Cc1ccc(C2C(O)CCCc3cncn32)c(-c2ccccc2Cl)c1 (stereo not drawn) [CSN5i-1b]
1.1 ± 0.5 µM: [1]
> 100 µM: [2] | [3] | [4] | [5] | [6] | [7] | [8] | [9]
